Values of other authors in US10073089B2 (priority 2011, dated 2018).

Tested on: torpedo electrocyte membranes
Details: read-out: Sensitivity (concentration in nM)

Substance: 13-desmethyl spirolide C [13-SPX C]
- IC50: 108 nM

Substance: gymnodimine A [GYM A]
- IC50: 391 nM
